Data from patent publication US20020026053A1, “Novel 3-(substituted) -2- indolinones compounds and use thereof as inhibitors of protein kinase activity” (priority 1997, published 2002).

The compounds below were run against T1, Met receptor (EGFR/Met chimeric cells, EMR) (Homo sapiens, UniProt P08581) (assay: Met Autophosphorylation Assay). Details: protocol P.130.
T1 construct: expressed in transfected cells; the other entry of the earlier key: EGFR (P00533, Epidermal growth factor receptor)
Assay type: biochemical
Method in brief: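 Transiently transfected EGFR/Met chimeric (EMR) cells were lysed in HNTG with 1 mM PMSF. Met was captured on plates coated with goat anti-rabbit IgG, then rabbit anti-Met (C-28), using 90 μg lysate/100 μl for 60 min at room temperature. Phosphotyrosine was read by ELISA.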

T1 sequence (P08581 with tags, fused parts or gaps): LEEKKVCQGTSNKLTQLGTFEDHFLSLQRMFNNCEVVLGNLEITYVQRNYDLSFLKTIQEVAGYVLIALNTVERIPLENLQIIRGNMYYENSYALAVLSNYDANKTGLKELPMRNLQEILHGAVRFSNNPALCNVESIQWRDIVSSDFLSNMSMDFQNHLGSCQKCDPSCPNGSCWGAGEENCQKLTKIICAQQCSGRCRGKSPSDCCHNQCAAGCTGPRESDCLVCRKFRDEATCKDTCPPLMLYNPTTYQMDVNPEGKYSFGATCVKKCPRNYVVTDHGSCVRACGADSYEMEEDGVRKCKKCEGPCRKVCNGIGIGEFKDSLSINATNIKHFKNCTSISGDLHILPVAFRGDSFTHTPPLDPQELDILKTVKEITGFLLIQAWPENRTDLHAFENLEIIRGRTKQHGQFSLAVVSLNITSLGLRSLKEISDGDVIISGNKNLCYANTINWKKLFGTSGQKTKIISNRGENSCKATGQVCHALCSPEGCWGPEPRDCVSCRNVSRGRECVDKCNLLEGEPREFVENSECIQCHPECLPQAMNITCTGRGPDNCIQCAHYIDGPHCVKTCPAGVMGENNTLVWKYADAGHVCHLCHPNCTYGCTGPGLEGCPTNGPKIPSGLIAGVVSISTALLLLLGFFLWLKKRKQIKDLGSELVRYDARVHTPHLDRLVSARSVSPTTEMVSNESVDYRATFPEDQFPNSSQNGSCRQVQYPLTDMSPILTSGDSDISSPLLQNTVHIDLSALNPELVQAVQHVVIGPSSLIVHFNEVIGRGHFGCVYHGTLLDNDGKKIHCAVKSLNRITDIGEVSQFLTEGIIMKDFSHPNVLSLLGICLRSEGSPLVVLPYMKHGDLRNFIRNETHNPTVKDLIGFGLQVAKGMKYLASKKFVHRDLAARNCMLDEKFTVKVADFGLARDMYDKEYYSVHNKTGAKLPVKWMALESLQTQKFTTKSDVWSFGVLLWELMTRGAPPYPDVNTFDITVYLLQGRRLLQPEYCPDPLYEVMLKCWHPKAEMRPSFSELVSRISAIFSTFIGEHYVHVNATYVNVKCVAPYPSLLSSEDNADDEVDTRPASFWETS

| SMILES | Met Kinase % Inhibition (P.130) [%] |
| --- | --- |
| Cc1c(Br)cc(Br)c2c1C(=Cc1cc(O)cc(O)c1)C(=O)N2 [10738/H07] | 77.2 |
| Cc1c(Br)cc(Br)c2c1C(=Cc1ccc(Cl)c(Cl)c1)C(=O)N2 [10738/H08] | 20.7 |
| COc1ccccc1C=C1C(=O)Nc2c(Br)cc(Br)c(C)c21 [10738/H09] | 52.3 |
| Cc1c(Br)cc(Br)c2c1C(=Cc1ccc(C(C)C)cc1)C(=O)N2 [10738/H10] | 27.7 |
| CCCOc1ccc(C=C2C(=O)Nc3c(Br)cc(Br)c(C)c32)cc1 [10738/H11] | 24.9 |
| COc1ccc(C=C2C(=O)Nc3c(Br)cc(Br)cc32)cc1C [10739/A02] | 41.8 |
| O=C1Nc2c(Br)cc(Br)cc2C1=Cc1cccc(OCc2ccccc2)c1 [10739/A03] | 37.4 |
| O=C1Nc2c(Br)cc(Br)cc2C1=Cc1ccc(OCc2ccccc2)cc1 [10739/A04] | 45.2 |
| O=C1Nc2c(Br)cc(Br)cc2C1=CC1COc2ccccc2O1 (stereo not shown) [10739/A05] | 36.5 |
| O=C1Nc2c(Br)cc(Br)cc2C1=Cc1ccc(O)cc1Cl [10739/A06] | 70.1 |
| O=C1Nc2c(Br)cc(Br)cc2C1=Cc1cc(O)c(O)c(O)c1 [10739/A07] | 99.9 |
| COc1ccc(Oc2cccc(C=C3C(=O)Nc4c(Br)cc(Br)cc43)c2)cc1 [10739/A08] | 39.9 |
| CN(C)CCCOc1ccc(C=C2C(=O)Nc3c(Br)cc(Br)cc32)cc1 [10739/A09] | 60.4 |
| O=C1Nc2c(Br)cc(Br)cc2C1=Cc1ccoc1 [10739/A10] | 81.2 |
| O=C1Nc2c(Br)cc(Br)cc2C1=Cc1ccc(CO)o1 [10739/A11] | 82.8 |
| COc1ccc(C=C2C(=O)Nc3ccc(I)cc32)cc1C [10739/B02] | 68.1 |
| O=C1Nc2ccc(I)cc2C1=Cc1cccc(OCc2ccccc2)c1 [10739/B03] | 62.4 |

| SMILES | Met Kinase % Inhibition (P.130) [%] |
| --- | --- |
| O=C1Nc2ccc(I)cc2C1=Cc1ccc(OCc2ccccc2)cc1 [10739/B04] | 65.1 |
| O=C1Nc2ccc(I)cc2C1=CC1COc2ccccc2O1 (stereo not shown) [10739/B05] | 74.0 |
| O=C1Nc2ccc(I)cc2C1=Cc1ccc(O)cc1Cl [10739/B06] | 68.1 |
| O=C1Nc2ccc(I)cc2C1=Cc1cc(O)c(O)c(O)c1 [10739/B07] | 98.7 |
| COc1ccc(Oc2cccc(C=C3C(=O)Nc4ccc(I)cc43)c2)cc1 [10739/B08] | 65.8 |
| CN(C)CCCOc1ccc(C=C2C(=O)Nc3ccc(I)cc32)cc1 [10739/B09] | 63.5 |
| O=C1Nc2ccc(I)cc2C1=Cc1ccoc1 [10739/B10] | 70.6 |
| O=C1Nc2ccc(I)cc2C1=Cc1ccc(CO)o1 [10739/B11] | 84.9 |
| COc1ccc(C=C2C(=O)Nc3ccc(Br)c(C)c32)cc1C [10739/C02] | 34.7 |
| Cc1c(Br)ccc2c1C(=Cc1cccc(OCc3ccccc3)c1)C(=O)N2 [10739/C03] | 10.9 |
| Cc1c(Br)ccc2c1C(=Cc1ccc(OCc3ccccc3)cc1)C(=O)N2 [10739/C04] | −3.6 |
| Cc1c(Br)ccc2c1C(=CC1COc3ccccc3O1)C(=O)N2 (stereo not shown) [10739/C05] | 34.7 |
| Cc1c(Br)ccc2c1C(=Cc1ccc(O)cc1Cl)C(=O)N2 [10739/C06] | 56.1 |
| Cc1c(Br)ccc2c1C(=Cc1cc(O)c(O)c(O)c1)C(=O)N2 [10739/C07] | 93.0 |
| COc1ccc(Oc2cccc(C=C3C(=O)Nc4ccc(Br)c(C)c43)c2)cc1 [10739/C08] | 9.1 |
| Cc1c(Br)ccc2c1C(=Cc1ccc(OCCCN(C)C)cc1)C(=O)N2 [10739/C09] | 76.3 |
| Cc1c(Br)ccc2c1C(=Cc1ccoc1)C(=O)N2 [10739/C10] | 66.3 |
